From PMC5980259, “GI‐530159, a novel, selective, mechanosensitive two‐pore‐domain potassium (K2P) channel opener, reduces rat dorsal root ganglion neuron excitability” (British Journal of Pharmacology, 2017)
“And” between values parts separate entries of the source, which are not always exact repeats. Identical values can stand only once.

What was measured:
Type in all cases: cell-based
THIK1 (K2P13.1) = biological target: T1, THIK1 (K2P13.1) (Homo sapiens, UniProt Q9HB14); assay: Whole-cell patch clamp, THIK1 channels; settings: 1 μM; n = 7
T1 construct: expressed in transfected cells; host or cells: tsA-201, transient, pcDNA3.1 vector
T1 sequence (Q9HB14 whole entry): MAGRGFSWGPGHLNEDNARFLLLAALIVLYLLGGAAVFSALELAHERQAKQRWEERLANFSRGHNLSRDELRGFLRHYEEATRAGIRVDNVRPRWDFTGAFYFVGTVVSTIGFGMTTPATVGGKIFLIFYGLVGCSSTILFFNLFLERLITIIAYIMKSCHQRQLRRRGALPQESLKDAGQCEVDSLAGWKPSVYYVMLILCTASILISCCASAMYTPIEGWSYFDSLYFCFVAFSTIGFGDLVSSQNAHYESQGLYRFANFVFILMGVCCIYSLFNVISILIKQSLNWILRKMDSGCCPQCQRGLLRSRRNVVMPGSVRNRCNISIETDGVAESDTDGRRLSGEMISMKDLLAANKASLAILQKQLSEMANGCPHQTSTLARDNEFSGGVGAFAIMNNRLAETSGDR
Procedure: (§1) Recordings of hTREK1, hTREK1∆N, hTREK2, hTRAAK and […] currents from transiently transfected tsA‐201 cells were performed using methods as described in Veale and Mathie (2016). Briefly, the pcDNA3.1 vector was cloned with the gene of interest, and these vectors and a similar vector containing GFP were incorporated into the tsA201 cells (0.5 μg per well) using the calcium phosphate method. The cells were incubated for 6–12 h at 37°C in […] and 5% carbon dioxide. Cells were then washed using a PBS solution and used for experiments after 24 h.
(§2) Currents were recorded using whole‐cell patch‐clamp using an Axopatch 1D amplifier. Cells were placed in a recording chamber filled with an external medium composed of 145 mM, NaCl, 2.5 mM KCl, 3 mM MgCl2, 1 mM CaCl2 and 10 mM HEPES (pH to 7.4, using NaOH). The internal medium used in the glass pipette comprised 150 mM KCl, 3 mM MgCl2, 5 mM (or 0.1 mM) EGTA and 10 mM HEPES (pH to 7.4, using KOH). GI‐530159 was applied by bath perfusion. Currents were recorded and analysed using pCLAMP 10.2 software Microsoft Excel. The voltage protocol used for recording current through K2P channels was as previously described (Veale and Mathie, 2016). For analysis, we measured the current difference between the −80 and −40 mV steps.

TASK2 (K2P5.1) = TASK2 (K2P5.1) (Homo sapiens, UniProt O95279); assay: Rb+ efflux assay, TASK2
Sequence of TASK2 (K2P5.1) (O95279 whole entry, species assumed): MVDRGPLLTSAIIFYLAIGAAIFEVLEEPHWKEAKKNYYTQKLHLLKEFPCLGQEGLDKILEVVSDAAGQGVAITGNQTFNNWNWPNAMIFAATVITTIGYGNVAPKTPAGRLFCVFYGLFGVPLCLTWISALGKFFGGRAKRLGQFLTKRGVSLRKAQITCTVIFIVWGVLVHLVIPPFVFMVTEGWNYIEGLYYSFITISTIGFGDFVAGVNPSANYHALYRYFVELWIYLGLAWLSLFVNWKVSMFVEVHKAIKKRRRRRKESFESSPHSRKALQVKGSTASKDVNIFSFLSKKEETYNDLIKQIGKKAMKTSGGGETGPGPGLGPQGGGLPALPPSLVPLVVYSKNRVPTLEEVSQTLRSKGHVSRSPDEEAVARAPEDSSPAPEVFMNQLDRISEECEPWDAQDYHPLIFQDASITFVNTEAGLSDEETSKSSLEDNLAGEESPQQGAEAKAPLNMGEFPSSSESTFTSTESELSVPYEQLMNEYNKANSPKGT

hTREK1 [1] = biological target: T2, hTREK1 (Homo sapiens, UniProt O95069); assay: Manual whole-cell patch clamp, HEK293 cells stably expressing TREK1; design: expressed in transfected cells
T2 sequence (O95069 1-426): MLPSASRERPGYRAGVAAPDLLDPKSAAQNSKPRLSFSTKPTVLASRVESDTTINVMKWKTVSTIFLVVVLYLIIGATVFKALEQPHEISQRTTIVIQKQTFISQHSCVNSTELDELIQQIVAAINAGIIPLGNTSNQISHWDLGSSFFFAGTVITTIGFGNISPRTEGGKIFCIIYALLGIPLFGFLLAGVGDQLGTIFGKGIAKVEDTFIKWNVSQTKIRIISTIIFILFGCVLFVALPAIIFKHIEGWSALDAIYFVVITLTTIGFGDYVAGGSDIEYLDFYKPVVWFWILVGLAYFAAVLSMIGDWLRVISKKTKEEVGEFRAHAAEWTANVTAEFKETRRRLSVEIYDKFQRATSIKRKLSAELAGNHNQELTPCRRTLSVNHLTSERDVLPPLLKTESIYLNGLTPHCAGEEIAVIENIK
Procedure: Electrophysiological studies were performed on CHO or HEK293 cells, stably expressing human recombinant TREK1; tsA‐201 cells transiently transfected with human recombinant K2P channels and acutely dissociated rat DRG cells, all at room temperature (22–24°C).
Studies were performed using a conventional patch clamp and Multiclamp 700B and pCLAMP software (Molecular Devices, Sunnyvale, CA, USA). For conventional manual patch clamp, glass coverslips containing HEK293 cells were perfused with an extracellular solution (ECS) containing (in mM): 135 NaCl, 4.7 KCl, 1 CaCl2, 1 MgCl2, 10 HEPES and 10 glucose, pH 7.4, with NaOH (310 mOsmol·L^−1). The patch pipette was filled with (in mM): 130 KCl, 1 MgCl2, 5 MgATP, 10 HEPES and 10 BAPTA, pH adjusted to 7.3 with KOH (290 mOsmol·L^−1).

hTREK1 [2] = biological target: T2, hTREK1; assay: 86Rb efflux from CHO–hTREK1 cells; design: expressed in transfected cells; settings: 60 min exposure, fit of logistic equation
Procedure: CHO–hTREK1 cells were plated on 96‐well, tissue culture‐treated clear plates (92 696) the day before the assay and incubated overnight at 37°C in the presence of 1 μCi·mL^−1 86Rubidium (Rb, NEZ072, Perkin Elmer, Waltham MA, USA). Prior to commencement of the assay, the ^86Rb spiked media were removed from the plate, and cells were washed four times with 100 μL of a 5 mM K^+ ‘Earle's balance salt solution’ (EBSS) buffer containing 135 mM NaCl, 5.4 mM KCl, 1.8 mM CaCl2, 0.8 mM MgCl2,10 mM HEPES and 5 mM glucose, pH 7.4 (adjusted with NaOH). […] Both counting plates were then read on the Wallac Microbeta to measure ^86Rb content [counts per min (CPM)]. % ^86Rb efflux values were calculated as follows: ^86Rbefflux%cell content=CPMin efflux buffer/CPMin efflux buffer+CPMin cell lysate*100.
Magnitude of ^86Rb efflux stimulation was calculated as follows: %Activation=%efflux test well−efflux in5.4mMK^+EBSS/Efflux in70mMK^+EBSS−efflux in5.4mMK^+EBSS*100.
Half maximal activation of ^86Rb efflux (EC50) value was calculated using IDBS Xlfit using a four‐parameter logistic equation and expressed as mean ± SEM.

NaV1.8 = NaV1.8 (Homo sapiens, UniProt Q9Y5Y9); assay: Sodium channel selectivity, NaV1.8; settings: read-out: EC50 against NaV1.8
Sequence of NaV1.8 (Q9Y5Y9 whole entry): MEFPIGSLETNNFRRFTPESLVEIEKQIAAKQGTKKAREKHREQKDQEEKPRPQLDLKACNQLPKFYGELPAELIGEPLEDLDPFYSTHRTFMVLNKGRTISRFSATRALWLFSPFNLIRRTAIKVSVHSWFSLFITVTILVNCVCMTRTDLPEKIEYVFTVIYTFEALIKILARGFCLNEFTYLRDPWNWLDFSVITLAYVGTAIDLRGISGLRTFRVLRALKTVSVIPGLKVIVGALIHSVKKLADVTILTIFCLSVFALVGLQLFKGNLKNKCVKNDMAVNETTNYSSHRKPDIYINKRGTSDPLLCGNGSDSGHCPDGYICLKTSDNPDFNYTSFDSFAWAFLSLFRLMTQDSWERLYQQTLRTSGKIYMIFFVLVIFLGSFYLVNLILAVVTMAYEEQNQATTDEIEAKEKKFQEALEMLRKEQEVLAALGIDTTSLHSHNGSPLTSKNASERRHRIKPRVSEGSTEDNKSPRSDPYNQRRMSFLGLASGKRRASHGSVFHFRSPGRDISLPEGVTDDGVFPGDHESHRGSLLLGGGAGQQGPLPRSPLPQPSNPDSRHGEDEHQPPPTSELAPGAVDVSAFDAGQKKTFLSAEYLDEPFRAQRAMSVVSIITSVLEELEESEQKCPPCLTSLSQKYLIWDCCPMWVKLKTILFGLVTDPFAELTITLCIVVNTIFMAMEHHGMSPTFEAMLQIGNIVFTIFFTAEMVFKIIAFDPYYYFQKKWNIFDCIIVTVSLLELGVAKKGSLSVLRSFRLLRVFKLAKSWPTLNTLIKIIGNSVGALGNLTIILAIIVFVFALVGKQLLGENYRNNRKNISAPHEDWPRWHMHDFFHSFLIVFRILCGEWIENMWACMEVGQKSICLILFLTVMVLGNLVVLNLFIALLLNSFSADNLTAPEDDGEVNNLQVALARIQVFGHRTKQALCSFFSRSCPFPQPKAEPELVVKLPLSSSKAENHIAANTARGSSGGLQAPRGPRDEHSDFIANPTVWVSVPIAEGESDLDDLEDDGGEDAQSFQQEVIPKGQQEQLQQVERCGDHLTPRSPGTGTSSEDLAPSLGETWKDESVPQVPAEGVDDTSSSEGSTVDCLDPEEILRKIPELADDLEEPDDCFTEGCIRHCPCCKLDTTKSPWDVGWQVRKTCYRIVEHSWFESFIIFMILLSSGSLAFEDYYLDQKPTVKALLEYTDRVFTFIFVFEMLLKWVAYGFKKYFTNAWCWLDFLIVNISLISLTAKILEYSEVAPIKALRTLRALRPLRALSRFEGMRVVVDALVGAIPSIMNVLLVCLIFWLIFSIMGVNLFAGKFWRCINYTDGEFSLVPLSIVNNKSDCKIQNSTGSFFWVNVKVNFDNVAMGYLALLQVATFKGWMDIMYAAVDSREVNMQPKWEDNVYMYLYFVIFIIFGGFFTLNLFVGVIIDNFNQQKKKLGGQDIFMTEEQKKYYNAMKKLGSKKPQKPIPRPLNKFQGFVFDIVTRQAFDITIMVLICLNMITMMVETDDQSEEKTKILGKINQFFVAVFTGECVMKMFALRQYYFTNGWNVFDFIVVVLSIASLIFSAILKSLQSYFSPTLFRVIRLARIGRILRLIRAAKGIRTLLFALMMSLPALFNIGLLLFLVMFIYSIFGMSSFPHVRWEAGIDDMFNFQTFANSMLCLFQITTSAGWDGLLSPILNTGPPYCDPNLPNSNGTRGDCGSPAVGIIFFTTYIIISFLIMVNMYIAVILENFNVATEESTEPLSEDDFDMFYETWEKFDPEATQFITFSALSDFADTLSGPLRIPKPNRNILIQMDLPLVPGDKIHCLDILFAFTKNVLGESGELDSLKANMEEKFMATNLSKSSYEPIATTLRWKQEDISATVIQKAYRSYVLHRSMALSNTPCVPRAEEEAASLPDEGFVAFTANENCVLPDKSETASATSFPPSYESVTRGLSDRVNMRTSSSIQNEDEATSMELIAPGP

Kv7.2 = Kv7.2 (Homo sapiens, UniProt O43526); assay: Rb+ efflux assay, Kv7.2
hTREK1 [3] = biological target: T2, hTREK1; assay: Whole-cell patch clamp, transiently transfected tsA-201 cells, TREK1; design: expressed in transfected cells; host or cells: tsA-201, transient, pcDNA3.1 vector, GFP from a separate vector; settings: 1 μM, n = 6
Procedure: as §1, §2

SMILES: Nc1ccc(Oc2ccc(C(c3ccc(Oc4ccc(N)cc4)cc3)(C(F)(F)F)C(F)(F)F)cc2)cc1 [GI‐530159, 4,4′‐(hexafluoroisopropylidene)bis(p‐phenyleneoxy)dianiline]
- effect on THIK1 (K2P13.1) current (THIK1 (K2P13.1)): 0 ± 3%
- activator effect on TASK2 (K2P5.1) (TASK2 (K2P5.1)): no activator effects
- TREK1 current measured at 0 mV (hTREK1 [1]; 1 μM, HEK293, 116 ± 15 pA in presence of DMSO, n = 6, P < 0.05): 4090 ± 878 pA
- activated current, TREK1 channels (hTREK1 [1]; 1 μM, n = 6): 4.0 ± 0.9 nA
- reversal potential of compound-enhanced current (hTREK1 [1]; 1 μM, voltage ramp −100 to +80 mV): ~−80 mV
- enhanced current at maximal activation (hTREK1 [1]; 30 μM, measured at 0 mV, n = 5): 6.6 ± 0.9 nA
- EC50 (hTREK1 [1]; HEK293, 0.1 to 30 μM, measured at 0 mV, read-out: EC50 for TREK1 current enhancement): 890 nM and 900 nM
- EC50 (hTREK1 [2]; read-out: EC50 for stimulation of 86Rb efflux): 760 ± 100 nM
- Emax (hTREK1 [2]; normalized to 70 mM K, read-out: maximum effect on 86Rb efflux, % of that seen with 70 mM K): 142 ± 2%
- EC50 (NaV1.8): > 100000 nM
- activator effect on Kv7.2 (Kv7.2): no activator effects
- enhancement of TREK1 current (hTREK1 [3]): 69 ± 12%
